In patent US7989447B2, “1,5 and 3,6-substituted indole compounds having NOS inhibitory activity” (NeurAxon, Inc., priority 2006, dated 2011):

Key:
[1] = tested on: rats after L5/L6 spinal nerve ligation; assay: Chung Spinal Nerve Ligation (SNL) model of neuropathic pain, thermal hyperalgesia; type: in vivo, rat; details: one dose 10 or 60 mg/kg i.p.
Method: The efficacy of compound 107 for the treatment of neuropathic pain was assessed using standard animal models predictive of anti-hyperalgesic and anti-allodynic activity induced by a variety of methods.
The experimental designs for the Chung Spinal Nerve Ligation SNL Model assay for neuropathic pain are depicted in FIG. 1. Nerve ligation injury was performed according to the method described by Kim and Chung (Kim and Chung, Pain 50:355-363, 1992). This technique produces signs of neuropathic dysesthesias, including tactile allodynia, thermal hyperalgesia, and guarding of the affected paw. Rats were anesthetized with halothane and the vertebrae over the L4 to S2 region were exposed. The L5 and L6 spinal nerves were exposed, carefully isolated, and tightly ligated with 4-0 silk suture distal to the DRG. After ensuring homeostatic stability, the wounds were sutured, and the animals allowed to recover in individual cages. Sham-operated rats were prepared in an identical fashion except that the L5/L6 spinal nerves were not ligated. […] After a period of recovery following the surgical intervention, rats show enhanced sensitivity to painful and normally non-painful stimuli.

[2] = target: human endothelial constitutive NOS (eNOS) (Homo sapiens, UniProt P29474); assay: eNOS (Human) enzyme assay, radiometric conversion of [3H]L-arginine to [3H]L-citrulline; type: biochemical; details: recombinant human enzyme, 37° C., 45 min; read-out: Human eNOS
Method: (§1) Recombinant human inducible NOS (iNOS), human endothelial constitutive NOS (eNOS) or human neuronal constitutive NOS(nNOS) were produced in Baculovirus-infected Sf9 cells (ALEXIS). In a radiometric method, NO synthase activity was determined by measuring the conversion of [^3H]L-arginine to [^3H]L-citrulline. To measure iNOS, 10 μL of enzyme was added to 100 μL of 100 mM HEPES, pH=7,4, containing 1 mM CaCl2, 1 mM EDTA, 1 mM dithiotheitol, 1 μM FMN, 1 μM FAD, 10 μM tetrahydrobiopterin, 120 μM NADPH, and 100 nM CaM. To measure eNOS or nNOS, 10 μL of enzyme was added to 100 μL of 40 mM HEPES, pH=7.4, containing 2.4 mM CaCl2, 1 mM MgCl2, 1 mg/mL BSA, 1 mM EDTA, 1 mM dithiothreitol, 1 μM FMN, 1 μM FAD, 10 μM tetrahydrobiopterin, 1 mM NADPH, and 1.2 μM CaM.
(§2) To measure enzyme inhibition, a 15 μL solution of a test substance was added to the enzyme assay solution, followed by a pre-incubation time of 15 min at RT. The reaction was initiated by addition of 20 μL L-arginine containing 0.25 μCi of [^3H]arginine/mL and 24 μM L-arginine. The total volume of the reaction mixture was 150 μL in every well. The reactions were carried out at 37° C. for 45 min. The reaction was stopped by adding 20 μL of ice-cold buffer containing 100 mM HEPES, 3 mM EGTA, 3 mM EDTA, pH=5.5. [^3H]L-citrulline was separated by DOWEX (ion-exchange resin DOWEX 50 W X 8-400, SIGMA) and the DOWEX was removed by spinning at 12,000 g for 10 min in the centrifuge. An 70 μL aliquot of the supernatant was added to 100 μL of scintillation fluid and the samples were counted in a liquid scintillation counter (1450 Microbeta Jet, Wallac). […] All assays were performed at least in duplicate.

[3] = target: human neuronal constitutive NOS (nNOS) (Homo sapiens, UniProt P29475); assay: nNOS (Human) enzyme assay, radiometric conversion of [3H]L-arginine to [3H]L-citrulline; type: biochemical; details: for Ratio e/n: human eNOS / human nNOS; for IC50: recombinant human enzyme, 37° C., 45 min, read-out: Human nNOS
human neuronal constitutive NOS (nNOS), sequence (P29475 whole entry): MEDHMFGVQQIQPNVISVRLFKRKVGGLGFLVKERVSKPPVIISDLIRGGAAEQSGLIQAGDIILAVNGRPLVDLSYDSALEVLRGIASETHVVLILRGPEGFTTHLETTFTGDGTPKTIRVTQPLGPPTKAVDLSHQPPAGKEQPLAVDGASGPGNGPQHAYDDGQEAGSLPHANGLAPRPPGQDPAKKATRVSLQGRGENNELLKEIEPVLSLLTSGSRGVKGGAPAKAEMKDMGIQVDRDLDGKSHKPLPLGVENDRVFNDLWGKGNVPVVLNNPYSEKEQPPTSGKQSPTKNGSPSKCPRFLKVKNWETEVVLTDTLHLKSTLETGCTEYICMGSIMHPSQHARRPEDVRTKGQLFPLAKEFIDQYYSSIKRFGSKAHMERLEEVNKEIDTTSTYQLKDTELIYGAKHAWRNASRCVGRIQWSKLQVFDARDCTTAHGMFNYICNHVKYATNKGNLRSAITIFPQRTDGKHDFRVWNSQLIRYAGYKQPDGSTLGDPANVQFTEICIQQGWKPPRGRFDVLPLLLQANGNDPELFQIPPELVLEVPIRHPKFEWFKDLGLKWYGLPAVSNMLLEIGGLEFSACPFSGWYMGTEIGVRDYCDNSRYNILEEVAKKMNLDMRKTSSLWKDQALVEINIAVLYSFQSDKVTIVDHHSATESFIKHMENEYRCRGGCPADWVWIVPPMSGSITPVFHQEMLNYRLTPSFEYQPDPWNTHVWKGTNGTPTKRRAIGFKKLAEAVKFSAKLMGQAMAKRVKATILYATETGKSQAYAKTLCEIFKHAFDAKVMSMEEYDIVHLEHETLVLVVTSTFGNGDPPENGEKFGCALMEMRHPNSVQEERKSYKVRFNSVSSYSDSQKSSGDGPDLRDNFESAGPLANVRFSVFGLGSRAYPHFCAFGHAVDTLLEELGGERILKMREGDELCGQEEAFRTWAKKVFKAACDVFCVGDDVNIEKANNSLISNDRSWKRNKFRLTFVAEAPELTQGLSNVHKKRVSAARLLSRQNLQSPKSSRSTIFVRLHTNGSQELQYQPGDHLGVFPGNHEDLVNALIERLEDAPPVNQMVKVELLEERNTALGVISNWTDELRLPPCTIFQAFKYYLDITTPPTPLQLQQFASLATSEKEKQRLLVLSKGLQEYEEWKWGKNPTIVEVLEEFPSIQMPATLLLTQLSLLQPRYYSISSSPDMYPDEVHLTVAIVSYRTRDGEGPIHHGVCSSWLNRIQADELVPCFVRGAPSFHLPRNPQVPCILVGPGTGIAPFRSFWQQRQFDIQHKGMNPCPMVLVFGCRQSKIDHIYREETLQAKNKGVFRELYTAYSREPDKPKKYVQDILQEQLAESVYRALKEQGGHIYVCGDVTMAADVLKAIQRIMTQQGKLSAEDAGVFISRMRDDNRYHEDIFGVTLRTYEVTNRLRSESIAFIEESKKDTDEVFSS
Method: To measure enzyme inhibition, a 15 μL solution of a test substance was added to the enzyme assay solution, followed by a pre-incubation time of 15 min at RT. […] The total volume of the reaction mixture was 150 μL in every well. The reactions were carried out at 37° C. for 45 min. The reaction was stopped by adding 20 μL of ice-cold buffer containing 100 mM HEPES, 3 mM EGTA, 3 mM EDTA, pH=5.5. [^3H]L-citrulline was separated by DOWEX (ion-exchange resin DOWEX 50 W X 8-400, SIGMA) and the DOWEX was removed by spinning at 12,000 g for 10 min in the centrifuge. […] All assays were performed at least in duplicate. Standard deviations were 10% or less.

[4] = target: human inducible NOS (iNOS) (Homo sapiens, UniProt P35228); assay: iNOS (Human) enzyme assay, radiometric conversion of [3H]L-arginine to [3H]L-citrulline; type: biochemical; details: recombinant human enzyme, 37° C., 45 min
Method: as §1, §2

[5] = tested on: cardiogenic shock patients; details: randomized trial of 30 patients; reduced from 67%; cited from earlier work
migraine patients [6] = details: single i.v. administration; cited from earlier work
[7] = tested on: patients with persistent shock; details: up to 30 days, 11 patients with persistent shock; cited from earlier work
migraine patients [8] = details: open pilot study; cited from earlier work

Row | SMILES | IC50 [2] [µM] | Ratio e/n [3] | IC50 [3] [nM] | IC50 [4] [µM] | other results
1 | CN1CC=C(c2c[nH]c3cc(NC(=N)c4cccs4)ccc23)CC1 [Compound 107, N-[3-(1-methyl-1,2,3,6-tetrahydro-pyridin-4-yl)-1H-indol-6-yl]-thiophene-2-carboxamidine] | 29 | 26.36 | 1100 | 12 | antihyperalgesic effect (reversal of thermal hyperalgesia) [1]: clear antihyperalgesic effect
2 | CCCN[C@H]1CC[C@@H](c2c[nH]c3cc(NC(=N)c4cccs4)ccc32)CC1 [Compound 137, N-(3-((1s,4s)-4-(propylamino)cyclohexyl)-1H-indol-6-yl)thiophene-2-carboximidamide] | 5.54 | 27.02 | 200 | 8.26 | –
3 | COC(=O)[C@@H](N)CCCNC(=N)N[N+](=O)[O-] [L-NAME] | – | – | – | – | patient mortality [5]: 27%
4 | CN=C(N)NCCC[C@H](N)C(=O)O.Cl [L-NMMA, L-N^G methylarginine hydrochloride] | – | – | – | – | response rate (migraine patients [6]): 67%; survival rate [7]: 72%
5 | C/C1=C2/[N-][C@H]([C@H](CC(N)=O)[C@@]2(C)CCC(=O)NC[C@@H](C)OP(=O)([O-])O[C@H]2[C@@H](O)[C@@H](n3cnc4cc(C)c(C)cc43)O[C@@H]2CO)[C@]2(C)N=C(/C(C)=C3N=C(/C=C4N=C1[C@@H](CCC(N)=O)C\4(C)C)[C@@H](CCC(N)=O)[C@]\3(C)CC(N)=O)[C@@H](CCC(N)=O)[C@]2(C)CC(N)=O.[Co+3].[OH-] [hydroxycobalamin] | – | – | – | – | patients with a 50% reduction in the frequency of migraine attack (migraine patients [8]): 53%
